Results on 13 compounds are retold here after patent US12122761B2, “2-azaspiro[3.4]octane derivatives as M4 agonists” (NOVARTIS AG, priority 2019, dated 2024).

Where only a bound is given, the exact number is not on record here.

For this assay, the target named is T1, Cloned human M1 receptor (CHRM1) stably expressed in HEK293 cells (Homo sapiens, UniProt P11229).
T1 construct: expressed in transfected cells; host or cells: HEK293
T1 sequence (P11229 1-460): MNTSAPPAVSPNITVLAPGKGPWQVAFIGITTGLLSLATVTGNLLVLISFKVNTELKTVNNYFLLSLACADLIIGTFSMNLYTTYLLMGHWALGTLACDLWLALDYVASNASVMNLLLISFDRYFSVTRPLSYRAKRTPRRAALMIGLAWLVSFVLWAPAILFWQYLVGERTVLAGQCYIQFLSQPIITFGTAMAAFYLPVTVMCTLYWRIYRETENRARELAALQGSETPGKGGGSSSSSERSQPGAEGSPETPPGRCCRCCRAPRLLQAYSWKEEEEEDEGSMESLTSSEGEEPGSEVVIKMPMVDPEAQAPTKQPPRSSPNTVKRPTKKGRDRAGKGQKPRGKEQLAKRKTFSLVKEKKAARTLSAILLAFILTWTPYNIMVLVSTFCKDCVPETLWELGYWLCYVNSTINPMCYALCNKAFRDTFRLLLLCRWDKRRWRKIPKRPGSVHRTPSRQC
As to the kind of experiment: CHRM1 Ca++ Flux Assay (agonist mode, FDSS 7000EX). Format: cell-based. Particulars: for M1 FDSS PA: Percent Activity; for EC50: geometric mean if tested more than once. How it is done: The above examples were characterized by measuring the intracellular mobilization of Ca++ ions caused by signaling events mediated by the receptor. The Intra-cellular Calcium flux levels were captured by the highly sensitive Ca++ indicator, Calcium Assay Kit (BD Biosciences, Catalog Number 640178). The fluorescent activity from all receptors were monitored by the fluorescent imager, FDSS 7000EX (Hamamatsu) over a span of 3 minutes.
Cloned human M1 receptor (CHRM1) was stably expressed in HEK293 cells and were grown and maintained in a monolayer culture with DMEM/High Glucose (Life Technologies) supplemented with 10% Fetal Bovine Serum, 1× Pen-Strep, and 0.5 mg/mL Geneticin in a humidified atmosphere (5% CO2) at 37° C. The cultures were grown to 90% confluency in T150 flasks (Corning) and washed with 1×DPBS and lifted with 0.05% Trypsin (Life Technologies). The cells were then spun (1K rpm, 3 minutes) and frozen using Recovery Cell Culture Freezing Media (Gibco Technologies). Cells were stored in liquid nitrogen and thawed a day before the assay.
Prior to the day of the assay, stable HEK293 M1 cells were thawed and plated on 384 well black walled clear bottom TC treated plates (Greiner Cat #781091) at 25K cells/well with DMEM/High Glucose supplemented with 10% FBS (Hyclone) Pen-Strep (Life Technologies) and kept overnight in a humidified atmosphere (5% CO2) at 37° C. The following day, cells were loaded with 20 uL Ca^++ dye (BD Biosciences) using Loading Buffer (HBSS +Ca/+Mg, 20 mM HEPES) and placed back in cell incubator for a minimum of 1 hour. The dye was replaced with 45 μL Assay Buffer (HBSS −Ca/−Mg, 20 mM HEPES) and kept at room temperature prior to running on cell imager. Compounds were prepared in Assay Buffer and 5 uL was added to the cells. The FDSS 7000EX (Hamamatsu) was used to acquire Ca++ traces for 3 minutes from cells treated with 11 point dose in triplicate in order to generate dose response curves in agonist mode. All compounds were serially diluted in DMSO then prepared in Assay Buffer for Ca^++ flux studies. The dose response curves were generated from the average of triplicate wells obtained from each data point and used a non-linear regression of four parameter dose response algorithm. The Percent Activity (PA) was measured to EC100 of Carbachol.

Usually EC50 stands for the concentration giving half of the maximal effect. Low readings indicate higher potency in that assay, high ones lower potency in that assay. Take `O=C(N1CC2(CC[C@@H](N3CCC(c4ccccc4OC4CCOCC4)CC3)C2)C1)C1(F)CC1` (single isomer, unassigned) [Example 9E, (R)-(1-fluorocyclopropyl)(6-(4-(2-((tetrahydro-2H-pyran-4-yl)oxy)phenyl)piperidin-1-yl)-2-azaspiro[3.4]octan-2-yl)methanone or (S)-(1-fluorocyclopropyl)(6-(4-(2-((tetrahydro-2H-pyran-4-yl)oxy)phenyl)piperidin-1-yl)-2-azaspiro[3.4]octan-2-yl)methanone]: the “M1 FDSS PA” value is 34% and a half-maximal response (EC50) required 120 nM.

As for `O=C(N1CC2(CC[C@@H](N3CCC(c4ccccc4OC4CCOCC4)CC3)C2)C1)C1(F)CC1` (single isomer, unassigned) [Example 9F, (R)-(1-fluorocyclopropyl)(6-(4-(2-((tetrahydro-2H-pyran-4-yl)oxy)phenyl)piperidin-1-yl)-2-azaspiro[3.4]octan-2-yl)methanone or (S)-(1-fluorocyclopropyl)(6-(4-(2-((tetrahydro-2H-pyran-4-yl)oxy)phenyl)piperidin-1-yl)-2-azaspiro[3.4]octan-2-yl)methanone], the “M1 FDSS PA” value worked out at 0% and the EC50 was greater than 25000 nM.

With `O=C(N1CC2(CC[C@@H](N3CCC(c4ccccc4C4(O)CCOCC4)CC3)C2)C1)C1(F)CC1` (single isomer, unassigned) [Example 9G, (R)-(1-fluorocyclopropyl)(6-(4-(2-(4-hydroxytetrahydro-2H-pyran-4-yl)phenyl)piperidin-1-yl)-2-azaspiro[3.4]octan-2-yl)methanone or (S)-(1-fluorocyclopropyl)(6-(4-(2-(4-hydroxytetrahydro-2H-pyran-4-yl)phenyl)piperidin-1-yl)-2-azaspiro[3.4]octan-2-yl)methanone], the “M1 FDSS PA” value came out at 16% and the EC50 was 301 nM.

Regarding `O=C(N1CC2(CC[C@@H](N3CCC(c4ccccc4C4(O)CCOCC4)CC3)C2)C1)C1(F)CC1` (single isomer, unassigned) [Example 9H, (R)-(1-fluorocyclopropyl)(6-(4-(2-(4-hydroxytetrahydro-2H-pyran-4-yl)phenyl)piperidin-1-yl)-2-azaspiro[3.4]octan-2-yl)methanone or (S)-(1-fluorocyclopropyl)(6-(4-(2-(4-hydroxytetrahydro-2H-pyran-4-yl)phenyl)piperidin-1-yl)-2-azaspiro[3.4]octan-2-yl)methanone], the “M1 FDSS PA” value was 0% and the EC50 was greater than 25000 nM.

Consider `O=C(N1CC2(CC[C@@H](N3CCC(c4cc(F)ccc4C4(O)CCOCC4)CC3)C2)C1)C1(F)CC1` (single isomer, unassigned) [Example 9I, (R)-(6-(4-(5-fluoro-2-(4-hydroxytetrahydro-2H-pyran-4-yl)phenyl)piperidin-1-yl)-2-azaspiro[3.4]octan-2-yl)(1-fluorocyclopropyl)methanone or (S)-(6-(4-(5-fluoro-2-(4-hydroxytetrahydro-2H-pyran-4-yl)phenyl)piperidin-1-yl)-2-azaspiro[3.4]octan-2-yl)(1-fluorocyclopropyl)methanone], for which the “M1 FDSS PA” value amounted to 23% and the response was half-maximal at 92 nM (EC50).

In the case of `O=C(N1CC2(CC[C@@H](N3CCC(c4cc(F)ccc4C4(O)CCOCC4)CC3)C2)C1)C1(F)CC1` (single isomer, unassigned) [Example 9J, (R)-(6-(4-(5-fluoro-2-(4-hydroxytetrahydro-2H-pyran-4-yl)phenyl)piperidin-1-yl)-2-azaspiro[3.4]octan-2-yl)(1-fluorocyclopropyl)methanone or (S)-(6-(4-(5-fluoro-2-(4-hydroxytetrahydro-2H-pyran-4-yl)phenyl)piperidin-1-yl)-2-azaspiro[3.4]octan-2-yl)(1-fluorocyclopropyl)methanone], the “M1 FDSS PA” value was found to be 3% and the response was half-maximal at 2690 nM (EC50).

For `O=C(N1CC2(CC[C@@H](N3CCC(c4cc(F)ccc4C4CCOCC4)CC3)C2)C1)C1(F)CC1` (single isomer, unassigned) [Example 9K, (R)-(6-(4-(5-fluoro-2-(tetrahydro-2H-pyran-4-yl)phenyl)piperidin-1-yl)-2-azaspiro[3.4]octan-2-yl)(1-fluorocyclopropyl)methanone or (S)-(6-(4-(5-fluoro-2-(tetrahydro-2H-pyran-4-yl)phenyl)piperidin-1-yl)-2-azaspiro[3.4]octan-2-yl)(1-fluorocyclopropyl)methanone], the “M1 FDSS PA” value is on record as 58% and the EC50 is 36 nM.

Turning to `O=C(N1CC2(CC[C@@H](N3CCC(c4cc(F)ccc4C4CCOCC4)CC3)C2)C1)C1(F)CC1` (single isomer, unassigned) [Example 9L, (R)-(6-(4-(5-fluoro-2-(tetrahydro-2H-pyran-4-yl)phenyl)piperidin-1-yl)-2-azaspiro[3.4]octan-2-yl)(1-fluorocyclopropyl)methanone or (S)-(6-(4-(5-fluoro-2-(tetrahydro-2H-pyran-4-yl)phenyl)piperidin-1-yl)-2-azaspiro[3.4]octan-2-yl)(1-fluorocyclopropyl)methanone], the “M1 FDSS PA” value was 31% and the EC50 is 569 nM.

`Fc1cncc(N2CC3(CC[C@@H](N4CCC(c5cc(F)ccc5OC5CCOCC5)CC4)C3)C2)c1` (single isomer, unassigned) [Example 10A, (R)-6-(4-(5-fluoro-2-((tetrahydro-2H-pyran-4-yl)oxy)phenyl)piperidin-1-yl)-2-(5-fluoropyridin-3-yl)-2-azaspiro[3.4]octane or (S)-6-(4-(5-fluoro-2-((tetrahydro-2H-pyran-4-yl)oxy)phenyl)piperidin-1-yl)-2-(5-fluoropyridin-3-yl)-2-azaspiro[3.4]octane]: the “M1 FDSS PA” value is 34% and the EC50 was determined as 1330 nM.

With `Fc1cncc(N2CC3(CC[C@@H](N4CCC(c5cc(F)ccc5OC5CCOCC5)CC4)C3)C2)c1` (single isomer, unassigned) [Example 10B, (R)-6-(4-(5-fluoro-2-((tetrahydro-2H-pyran-4-yl)oxy)phenyl)piperidin-1-yl)-2-(5-fluoropyridin-3-yl)-2-azaspiro[3.4]octane or (S)-6-(4-(5-fluoro-2-((tetrahydro-2H-pyran-4-yl)oxy)phenyl)piperidin-1-yl)-2-(5-fluoropyridin-3-yl)-2-azaspiro[3.4]octane], the EC50 is greater than 25000 nM.

In the case of `Fc1ccc(C2CCOCC2)c(C2CCN([C@@H]3CCC4(C3)CN(c3cncnc3)C4)CC2)c1` (single isomer, unassigned) [Example 10C, (R)-6-(4-(5-fluoro-2-(tetrahydro-2H-pyran-4-yl)phenyl)piperidin-1-yl)-2-(pyrimidin-5-yl)-2-azaspiro[3.4]octane or (S)-6-(4-(5-fluoro-2-(tetrahydro-2H-pyran-4-yl)phenyl)piperidin-1-yl)-2-(pyrimidin-5-yl)-2-azaspiro[3.4]octane], the “M1 FDSS PA” value was determined as 76% and the EC50 turned out to be 80 nM.

As for `Fc1ccc(C2CCOCC2)c(C2CCN([C@@H]3CCC4(C3)CN(c3cncnc3)C4)CC2)c1` (single isomer, unassigned) [Example 10D, (R)-6-(4-(5-fluoro-2-(tetrahydro-2H-pyran-4-yl)phenyl)piperidin-1-yl)-2-(pyrimidin-5-yl)-2-azaspiro[3.4]octane or (S)-6-(4-(5-fluoro-2-(tetrahydro-2H-pyran-4-yl)phenyl)piperidin-1-yl)-2-(pyrimidin-5-yl)-2-azaspiro[3.4]octane], the “M1 FDSS PA” value was determined as 55% and the EC50 came out at 1410 nM.

On to `Fc1ccc(OC2CC3(COC3)C2)c(C2CCN([C@@H]3CCC4(C3)CN(c3cncnc3)C4)CC2)c1` (single isomer, unassigned) [Example 10E, (R)-6-(4-(2-((2-oxaspiro[3.3]heptan-6-yl)oxy)-5-fluorophenyl)piperidin-1-yl)-2-(pyrimidin-5-yl)-2-azaspiro[3.4]octane or (S)-6-(4-(2-((2-oxaspiro[3.3]heptan-6-yl)oxy)-5-fluorophenyl)piperidin-1-yl)-2-(pyrimidin-5-yl)-2-azaspiro[3.4]octane], for which the “M1 FDSS PA” value was found to be 4% and the EC50 worked out at 3990 nM.
